According to US11458114B2, “Methods and compositions for enhancing synthesis secretion and transport of collagen to increase wound strength” (NORTH CELL PHARMACEUTICALS, INC., priority 2020, dated 2022):
Entries after “also recorded” stand apart in the source; their conditions may differ.

Legend:
wounded hairless Rats = assay: Nitric oxide production and days to healing in wounded hairless rats; type: in vivo, rat; conditions: topical
[1] = tested on: Doxorubicin treated wounded hairless rats; assay: Rat wound strength healing study, doxorubicin-impaired wounds; type: in vivo; conditions: for Days to healing: Doxorubicin treated wounded hairless rats, topical, 2% pyruvate salts, 1% L proline, 1% L-citrulline; for Percentage of wound breaking strength, by day 21: compared to non-wounded normal skin (100%)
Description: Wound breaking strength is a measurement of wound strength after injury compared to normal noninjuried skin. Fourteen groups of five rats each were studied. The SRF was administered topically daily. All groups were wounded at postoperative day 0, at which time Doxo was given to all Groups. All wounds were harvested at POD 21, and the mean wound breaking strength (WBS) of each group was obtained using an Instron Tensiometer.

[2] = tested on: skin laser wounds in patients; assay: Salts of pyruvate and SRF on skin laser wounds in patients: healing and irritation
Description: (§1) All previous studies using pyruvate to treat wounds or be used as an antioxidant used only the sodium salt form of pyruvic acid. The drug products that were tested in previous studies used 1-3% sodium pyruvate and other sodium salts of alpha keto acids by weight 1-3% concentrations in the lotions and triple antibiotic formulations. […]

[3] = tested on: cultured human dermal fibroblasts; assay: Procollagen production in cultured human dermal fibroblasts (ELISA); type: cell-based
[4] = tested on: UVB-induced wrinkle formation; assay: Topical alpha-ketoglutarate on UVB-induced wrinkle formation; type: in vivo, human; conditions: 1% topical, 6 weeks
wounds = assay: Various drugs administered on wounds with or without sodium pyruvate or SRF: erythema rating and days to total re-epithelization; conditions: for Drugs in commercial formula with SRF erythema / Drugs in commercial formula with sodium pyruvate only erythema / Drugs in commercial formula erythema: Rating 1-10, 1 most erythema, 10 no erythema; for Drugs in commercial formula erythema / Drug in commercial formula Days to healing: drug alone; for Drug in commercial formula with SRF. Days to healing / Drug in commercial formula with sodium pyruvate only. Days to healing / Drug in commercial formula Days to healing: days to total re-epithelization
Description: as §1

virally infected cells = assay: Viral plaque formation in virally infected cells; type: cell-based
Excerpt: A commercial cold sore formula was purchased and the enumerated keto acids were placed into it to treat cold sores, both as a combination and singly as well. The commercial formulation by itself was utilized as a control. […] However, when SRF was placed in the cold sore formulation both with and without anti-oxidants and fatty acids, they heal the cold sore at a much faster rate 10-40% when tested on a cold sore sufferer The same experiment was done with virally infected cells and the combination of pyruvate and α-Ketoisovalerate with SRF decreased viral plaque formation by 50%. Viral plaques are a direct measure of viral numbers in infected cells. […] Other antivirals were evaluated with SRF to determine if the addition of SRF could reduce the skin irritation produced by Foscarnet sodium, Ribavirin, imiquimod, vidarabine, ganciclovir sodium, zidovudine, phenol, amantadine hydrochloride, and interferon. alpha.-n3. Even though some of these anti virals are not effective against a cold sore, they were evaluated on human cold sores to determine if SRF could reduce the irritation and enhance healing at the infection site. All formula with SRF healed cold sore two days faster than non-treatments and when this formula was combined with antiviral, like acyclovir or docosonal, the viral lesions healed 1.5 days faster than the commercial antiviral agent alone (Abreva or acyclovir). […]

HSV-1 or 2 = assay: Viral plaques in virally infected cells, HSV; type: cell-based
Excerpt: Results: The primary end points were the levels of IL-8 and IL-1 after treatment with an immunostimulators, and SRF. […] IL-8 activates neutrophils to increase their numbers at the infected site. […] IL-1 increases inflammation and decreases healing times. […] The same experiment was done with virally infected cells and the SRF in combination with immunostimulators decreased viral plaque formed by HSV-1 or 2 by 70% and HPV-18 decreased by 82%. Viral plaques are a direct measure of viral numbers in infected cells.

cold sores = assay: Cold sore treatment, 15 subjects; conditions: human, in vivo
[5] = Amount of salts delivered in the pyruvate formulations compared to amounts in human blood; conditions: amount delivered in the pyruvate formulation
tumors = assay: SRF given 1-2 hours prior to 3-bromopyruvate: tumor size; type: in vivo; conditions: 3 bromopyruvate by itself
Description: To date most patients with cancer that are treated with radiation or cancer drugs show a partial reduction of tumor sizes, but in most cases the cancer remains and life expectances increases for a short period of time. This is the case for tumors. Five patients with various cancers were treated with 3-Bromopyruvate, an alkylating agent and a well-known inhibitor of energy metabolism. Results to date have been mixed. The problem with most cancer drugs is not only their toxicity to noncancerous tissue, but is their inability to completely eradicate the cancer. Cancer drugs cause hypoxia in normal noncancerous cells and they destroy tissue and their ability to heal. In mice studies conducted by others, they investigated the chemo preventive activity of 3-bromopyruvate. For the topical treatment the mice were treated with 10-30 mg/5 ml daily and treated for 8 weeks. […] 3-Bromopyruvate also dissociated hexokinase II from mitochondria, reduced hexokinase activity, and blocked energy metabolism in cancer cells, finally triggered cancer cell death and induced apoptosis through caspase-3, and PARP in human lung cancer cell line. The problem with 3-bromopyruvate was its toxicity to normal cells. The formula needed to protect noncancerous cells from 3-bromopyruvate and to enhance its effect on tumors, was the addition of SRF 1-2 hours prior to the administration of the 10 mg of 3-bromopyruvate. […]

HPV 16 or 18 = assay: Viral plaque reduction, patients with vaginal HPV treated with SRF cream containing imiquimod; conditions: human, in vivo
Description: Percentage of Viral Plaque Reduction in Virally Infected Cells in Humans
A total of 15 patients with vaginal HPV 16 or 18 were treated with the SRF cream that also contained imiquimod. […] SRF reduces viral plaques in virally infected cells by 22-34%. Unexpectedly, the combination of SRF and Imiquimod produced the best results, by reducing the viral plaques over 92%, eliminating the virus from most of the infected cells. This tissue culture data along with data from humans, confirms that this combination worked.

[6] = tested on: laser wounds on the left arm; assay: Pigmentation study on laser wounds; type: in vivo; conditions: range 1-10, 10 totally normal
Excerpt: Six laser wounds were made on the left arm. As an example, Mupirocin was placed on the first wound site, Mupirocin plus sodium pyruvate was placed on the second wound site and Mupirocin with SRF was placed on third wound site. The same process was repeated with another drug for sites 4-6. Every two days the bandages coated with the drugs were removed and replaced five times. Pigmentation measurements range from 1-10 with 10 being totally normal. The mupirocin drug formulas averaged a 4.9 for pigmentation. […]. The addition of the SRF averaged 7.45 a […] increase in pigmentation.

Compound: Magnesium pyruvate
- % of NO levels against normal nonwounded skin (wounded hairless Rats): 36%
- Days to healing (wounded hairless Rats): 13 days
- Days to healing [1]: 14 days
- Percentage of wound breaking strength, by day 21 [1]: 44%
- wound healing results ([2]; human, in vivo): slight increases in healing; also recorded: did not produce increases in healing over the base

Compound: O=C(O)CCC(=O)C(=O)O [alpha-ketoglutarate]
- stimulated procollagen production ([3]; 10 microM, compared to vehicle (dH(2)O)-treated control cells): 25.6+/−4.6%
- activities of prolidase ([3]; fibroblasts): increased
- wrinkle formation [4]: decreased wrinkle formation

Compound: Nc1nc2c(ncn2COCCO)c(=O)[nH]1 [Acyclovir]
- Drugs in commercial formula with SRF erythema (wounds): 7
- Drugs in commercial formula with sodium pyruvate only erythema (wounds): 5
- Drugs in commercial formula erythema (wounds): 4
- Drug in commercial formula with SRF. Days to healing (wounds): 10 days
- Drug in commercial formula with sodium pyruvate only. Days to healing (wounds): 13 days
- Drug in commercial formula Days to healing (wounds): 18 days
- decrease of viral plaque formation (virally infected cells): 60%
- decreased viral HSV plaques (HSV-1 or 2): 60%

Compound: COc1cccc2c1C(=O)c1c(O)c3c(c(O)c1C2=O)C[C@@](O)(C(=O)CO)C[C@@H]3O[C@H]1C[C@H](N)[C@H](O)[C@H](C)O1 [Doxorubicin]
- impaired normal wound strength by ([1]; Doxo 6 mg/kg i.v., POD 21): 40%

Compound: Calcium pyruvate
- % of NO levels against normal nonwounded skin (wounded hairless Rats): 22%
- Days to healing (wounded hairless Rats): 15 days
- Days to healing [1]: 14 days
- Percentage of wound breaking strength, by day 21 [1]: 42%

Compound: O=C(O)[C@@H]1CCCN1C(=O)OCc1ccccc1 [Cbz-Pro, N-benzyloxycarbonyl-L-proline]
- procollagen synthesis by alpha-ketoglutarate ([3]; prolidase inhibitor added): inhibited procollagen synthesis

Compound: Oc1ccccc1 [phenol]
- cold sore efficacy, lesion healing (cold sores): did not work very well

Compound: zinc pyruvate
- delivered salt relative to blood levels [5]: 840 × blood levels
- wound healing results ([2]; same concentration of pyruvate for each salt, compared with sodium pyruvate formulations or base): slight increases in healing; also recorded: did not produce increases in healing over the base
- irritation or toxicity ([2]; skin): irritating and possibly toxic

Compound: O=C(O)C(=O)CBr [3-bromopyruvate]
- reduction of tumor sizes (tumors): 60%

Compound: CC(C)Cn1cnc2c(N)nc3ccccc3c21 [Imiquimod]
- reduction of viral plaques in virally infected cells (HPV 16 or 18): 25-40%

Compound: C/C(=C\C(=O)OCCCCCCCCC(=O)O)C[C@@H]1OC[C@H](C[C@@H]2O[C@H]2[C@@H](C)[C@H](C)O)[C@@H](O)[C@H]1O [Mupirocin]
- Drugs in commercial formula with SRF erythema (wounds): 8
- Drugs in commercial formula with sodium pyruvate only erythema (wounds): 6
- Drugs in commercial formula erythema (wounds): 4
- Drug in commercial formula with SRF. Days to healing (wounds): 11 days
- Drug in commercial formula with sodium pyruvate only. Days to healing (wounds): 15 days
- Drug in commercial formula Days to healing (wounds): 20 days
- Pigmentation measurement [6]: 4.9

Compound: CCCCCCCCCCCCCCCCCCCCCCO [docosonal]
- cold sore efficacy, lesion healing (cold sores): better efficacy with the addition of SRF
